Assay results taken from ChEMBL document CHEMBL3734756, “Novel -carbolinequinazolinone hybrid as an inhibitor of Leishmania donovani trypanothione reductase: Synthesis, molecular docking and bioevaluation” (Medchemcomm, 2015).
Calls of active or inactive are those of the source. The rule behind the calls is not given here.

Experiments:
[1] = target: Trypanothione reductase (Leishmania donovani) (UniProt P39050); test: Inhibition of recombinant Leishmania donovani trypanothione reductase expressed in Escherichia coli BL21 (DE3) using trypanothione disulphide as substrate at 100 uM preincubated for 5 mins followed by substrate addition by microplate reader analysis relative to control
Chain of Trypanothione reductase (Leishmania donovani) (P39050 whole entry): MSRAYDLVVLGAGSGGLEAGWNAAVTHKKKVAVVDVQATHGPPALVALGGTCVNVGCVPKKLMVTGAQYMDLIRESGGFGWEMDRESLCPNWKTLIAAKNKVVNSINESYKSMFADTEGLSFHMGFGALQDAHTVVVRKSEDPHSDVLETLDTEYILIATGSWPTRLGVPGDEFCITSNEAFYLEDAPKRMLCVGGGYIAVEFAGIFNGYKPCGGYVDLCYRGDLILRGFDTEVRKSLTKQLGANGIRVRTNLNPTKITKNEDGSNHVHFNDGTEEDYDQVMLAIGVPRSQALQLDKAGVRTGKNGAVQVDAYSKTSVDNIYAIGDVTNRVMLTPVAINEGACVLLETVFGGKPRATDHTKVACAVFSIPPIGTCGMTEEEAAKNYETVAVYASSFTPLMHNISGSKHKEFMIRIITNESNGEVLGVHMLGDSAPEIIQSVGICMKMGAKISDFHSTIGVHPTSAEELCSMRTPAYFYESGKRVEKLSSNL

[2] = target: Trypanothione reductase (Leishmania donovani) (UniProt P39050); test: Inhibition of recombinant Leishmania donovani trypanothione reductase expressed in Escherichia coli BL21 (DE3) using trypanothione disulphide as substrate at 50 uM preincubated for 5 mins followed by substrate addition by microplate reader analysis relative to control
[3] = target: Trypanothione reductase (Leishmania donovani, UniProt P39050); test: Competitive inhibition of recombinant Leishmania donovani trypanothione reductase expressed in Escherichia coli BL21 (DE3) by Dixon plot analysis in presence of trypanothione disulphide
Chain of Trypanothione reductase (P39050 whole entry): as above

[4] = system: Leishmania donovani; test: Antileishmanial activity against extracellular promastigote stage of Leishmania donovani after 96 hrs by luciferase reporter gene assay; assay type: functional, organism-based
[5] = system: Leishmania donovani; test: Antileishmanial activity against amastigote stage of Leishmania donovani infected in mouse J774A.1 cells after 72 hrs by luciferase reporter gene assay; assay type: functional, organism-based; settings: J774.A1, 72 h
[6] = Cytotoxicity against African green monkey Vero cells assessed as cell viability after 72 hrs by MTT assay; assay type: cell-based; settings: chlorocebus sabaeus
[7] = (§1) Selectivity index, ratio of CC50 for African green monkey Vero cells to IC50 for amastigote stage of Leishmania donovani infected in mouse J774A.1 cells; assay type: functional
[8] = system: Vero; test: as §1; assay type: functional

In the case of COC(=O)c1cc2c([nH]c3ccccc32)c(C2Nc3ccccc3C(=O)N2C2CCCCCC2)n1 (stereo unspecified), the inhibition [1] is reported as “inactive” and the inhibition [2] is reported as “inactive”.
With COC(=O)c1cc2c([nH]c3ccccc32)c(C2Nc3ccccc3C(=O)N2C2CC2)n1 (stereo unspecified) the inhibition [1] was “inactive” and the inhibition [2] was “inactive”.
CCN1C(=O)c2ccccc2NC1c1nc(C(=O)OC)cc2c1[nH]c1ccccc12 (stereo unspecified) showed an inhibition [1] of 75%, an inhibition [2] of 58% and a Ki [3] of 6.5 µM. For the same compound, the IC50 [4] was 8.5 µM and the IC50 [5] was greater than 40 µM.
With COC(=O)c1cc2c([nH]c3ccccc32)c(C2Nc3ccccc3C(=O)N2C2CCCCC2)n1 (stereo unspecified) the inhibition [1] was 1% and the inhibition [2] was “inactive”.
COC(=O)c1cc2c([nH]c3ccccc32)c(C2Nc3ccccc3C(=O)N2c2ccc(F)cc2)n1 (stereo unspecified) showed an inhibition [1] of 96%, an inhibition [2] of 81% and a Ki [3] of 3.9 µM. It also gave an IC50 [4] of 4.6 µM, an IC50 [5] of 6 µM and a CC50 at 72 h [6] of 217 µM. The “Ratio CC50/IC50” value [7] was 36.
With COC(=O)c1cc2c([nH]c3ccccc32)c(C2Nc3ccccc3C(=O)N2c2ccccc2)n1 (stereo unspecified) the inhibition [1] was 18% and the inhibition [2] was 16%.
sodium stibogluconate showed a Ratio CC50/IC50 [8] of 7.
Compound COC(=O)c1cc2c([nH]c3ccccc32)c(C2Nc3ccccc3C(=O)N2C2CCCC2)n1 (stereo unspecified) has an inhibition [1] of 30% and an inhibition [2] of 20%.
Work on CCCCN1C(=O)c2ccccc2NC1c1nc(C(=O)OC)cc2c1[nH]c1ccccc12 (stereo unspecified) yielded an inhibition [1] of 35% and an inhibition [2] of 28%.
With CCCN1C(=O)c2ccccc2NC1c1nc(C(=O)OC)cc2c1[nH]c1ccccc12 (stereo unspecified) the inhibition [1] was 9% and the inhibition [2] was 7%.
With COC(=O)c1cc2c([nH]c3ccccc32)c(C2Nc3ccccc3C(=O)N2c2ccc(OC)cc2)n1 (stereo unspecified) the inhibition [1] was “inactive” and the inhibition [2] was “inactive”.
Compound COC(=O)c1cc2c([nH]c3ccccc32)c(C2Nc3ccccc3C(=O)N2Cc2ccccc2)n1 (stereo unspecified) has an inhibition [1] of 11% and an inhibition [2] of 6%.
For CCCCCCCCCCCCCCCCOP(=O)([O-])OCC[N+](C)(C)C [MILTEFOSINE], the IC50 [4] was 1.2 µM, the IC50 [5] was 8.1 µM and the CC50 at 72 h [6] was 56.5 µM. The “Ratio CC50/IC50” value [7] was 7.
In the case of CCCCCN1C(=O)c2ccccc2NC1c1nc(C(=O)OC)cc2c1[nH]c1ccccc12 (stereo unspecified), the inhibition [1] is reported as 99%, the inhibition [2] is reported as 90% and the Ki [3] is reported as 0.8 µM. It also gave an IC50 [4] of 9.9 µM and an IC50 [5] greater than 40 µM.
With COC(=O)c1cc2c([nH]c3ccccc32)c(C2Nc3ccccc3C(=O)N2Cc2ccc(OC)cc2)n1 (stereo unspecified) the inhibition [1] was 60%, the inhibition [2] was 56% and the Ki [3] was 9.2 µM. The IC50 [4] was 5.4 µM, the IC50 [5] was 35.2 µM and the CC50 at 72 h [6] was 106 µM. The “Ratio CC50/IC50” value [7] was 3.
With COC(=O)c1cc2c([nH]c3ccccc32)c(C2Nc3ccccc3C(=O)N2Cc2ccc(Cl)c(Cl)c2)n1 (stereo unspecified) the inhibition [1] was 85%, the inhibition [2] was 77% and the Ki [3] was 3.7 µM. It also gave an IC50 [4] of 4.8 µM, an IC50 [5] of 4.3 µM and a CC50 at 72 h [6] of 104 µM. For the same compound, the “Ratio CC50/IC50” value [7] was 24.
With COC(=O)c1cc2c([nH]c3ccccc32)c(C2Nc3ccccc3C(=O)N2c2ccc(Cl)cc2)n1 (stereo unspecified) the inhibition [1] was 67%, the inhibition [2] was 64% and the Ki [3] was 7.2 µM. For the same compound, the IC50 [4] was 3.3 µM, the IC50 [5] was 4.4 µM and the CC50 at 72 h [6] was greater than 400 µM. For the same compound, the “Ratio CC50/IC50” value [7] was greater than 91.
